From ChEMBL document CHEMBL1129895, “A novel series of matrix metalloproteinase inhibitors for the treatment of inflammatory disorders” (Bioorg Med Chem Lett, 1997)
Square brackets hold non-standard residues; d marks the D form. Peptide text beside a SMILES is read from it. * marks the point of attachment. Propionyl = CCC(=O)*; Mpa = O=C(O)CCS

What was measured:
[1] = molecular target: T1, Matrix metalloproteinase-9 (Rattus norvegicus, UniProt P50282); experiment: Compound was tested for its inhibitory activity against Matrix metalloprotease-9 in adjuvant arthritic rat model of rheumatoid arthritis
T1 sequence (P50282 whole entry): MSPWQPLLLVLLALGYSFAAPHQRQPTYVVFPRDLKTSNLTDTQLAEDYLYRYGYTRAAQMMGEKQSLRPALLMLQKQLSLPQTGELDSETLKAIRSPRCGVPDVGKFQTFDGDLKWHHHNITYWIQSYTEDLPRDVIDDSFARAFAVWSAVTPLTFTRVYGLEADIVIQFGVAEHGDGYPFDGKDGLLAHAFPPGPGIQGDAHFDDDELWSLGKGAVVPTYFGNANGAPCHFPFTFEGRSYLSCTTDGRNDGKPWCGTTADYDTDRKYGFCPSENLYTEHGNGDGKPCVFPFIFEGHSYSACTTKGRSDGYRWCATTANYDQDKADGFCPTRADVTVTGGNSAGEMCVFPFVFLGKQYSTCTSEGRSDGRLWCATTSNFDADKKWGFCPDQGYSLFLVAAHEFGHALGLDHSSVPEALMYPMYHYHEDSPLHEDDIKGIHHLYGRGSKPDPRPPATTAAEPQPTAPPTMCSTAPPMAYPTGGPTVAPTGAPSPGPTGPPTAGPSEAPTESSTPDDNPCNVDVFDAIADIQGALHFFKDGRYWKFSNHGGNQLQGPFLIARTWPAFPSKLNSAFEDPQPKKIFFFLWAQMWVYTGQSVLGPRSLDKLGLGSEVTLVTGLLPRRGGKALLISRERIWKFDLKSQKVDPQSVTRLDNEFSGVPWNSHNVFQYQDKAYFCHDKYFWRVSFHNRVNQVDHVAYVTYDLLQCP

[2] = molecular target: Neutrophil collagenase (Rattus norvegicus, UniProt O88766); experiment: Compound was tested for its inhibitory activity against Matrix metalloprotease-8 (MMP-8) in adjuvant arthritic rat model of rheumatoid arthritis
Sequence of Neutrophil collagenase (O88766 whole entry): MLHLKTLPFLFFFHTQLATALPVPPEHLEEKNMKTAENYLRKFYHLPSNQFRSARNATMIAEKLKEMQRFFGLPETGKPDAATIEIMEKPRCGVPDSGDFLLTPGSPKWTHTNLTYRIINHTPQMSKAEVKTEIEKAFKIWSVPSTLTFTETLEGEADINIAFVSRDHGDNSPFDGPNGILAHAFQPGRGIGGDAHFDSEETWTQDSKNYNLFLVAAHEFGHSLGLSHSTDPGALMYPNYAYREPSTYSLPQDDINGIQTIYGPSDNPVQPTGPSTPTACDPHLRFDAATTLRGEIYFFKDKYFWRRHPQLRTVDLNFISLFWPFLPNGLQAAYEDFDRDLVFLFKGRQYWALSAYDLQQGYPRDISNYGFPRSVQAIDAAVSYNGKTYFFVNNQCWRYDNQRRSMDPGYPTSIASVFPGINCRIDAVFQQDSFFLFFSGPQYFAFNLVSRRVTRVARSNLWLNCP

[3] = molecular target: T1, Matrix metalloproteinase-9; experiment: Compound was tested for its inhibitory activity against Matrix metalloprotease-9 (MMP-9) in adjuvant arthritic rat model of rheumatoid arthritis
[4] = test system: Rattus norvegicus; experiment: Inhibition of hind paw swelling was observed by the administration of compound at 40 mg/kg/day, perorally in adjuvant arthritic rat model of rheumatoid arthritis; assay type: functional; conditions: route oral

SMILES	IC50 [1] [nM]	IC50 [2] [nM]	IC50 [3] [nM]	inhibition in vivo at 40 mg/kg/day [4] [%]
CNC(=O)[C@H](Cc1ccccc1)NC(=O)[C@@H](NC(=O)CS)C(C)O (stereo partly specified)	1700	4100		
CNC(=O)[C@H](Cc1c[nH]c2ccccc12)NC(=O)[C@H](CSC)NC(=O)CS		20	120	
CNC(=O)[C@H](Cc1ccccc1)NC(=O)[C@H](C[S+](C)[O-])NC(=O)CS (stereo partly specified)	350	480		
CNC(=O)[C@H](Cc1ccccc1)NC(=O)[C@H](CC(C)C)NC(=O)CS	90	50		40
CNC(=O)[C@H](Cc1ccccc1)NC(=O)[C@H](CC(C)C)NC(=O)CSC	4600	2600		
CCC(=O)N[C@@H](CC(C)C)C(=O)N[C@@H](Cc1ccccc1)C(=O)NC (Propionyl-Leu-Phe-NHMe)	30000	> 100000		
CNC(=O)[C@H](Cc1c[nH]c2ccccc12)NC(=O)[C@H](CC(C)C)NC(=O)CS		80	30	
CNC(=O)[C@H](Cc1cscn1)NC(=O)[C@H](CC(C)C)NC(=O)CS		12	7	
CNC(=O)[C@H](Cc1ccccc1)NC(=O)[C@H](CSC)NC(=O)CS	13	6		
CNC(=O)[C@H](Cc1ccccc1)NC(=O)[C@H](CC(C)C)NC(=O)CCS ([Mpa]-Leu-Phe-NHMe)	9600	5100		
